Test results reported in patent publication US20250179106A1, “Metal Bis(Imino) Aryl Compounds and Methods Thereof” (EXXONMOBIL CHEMICAL PATENTS INC., priority 2022, published 2025).

Test: Solubility of catalysts in alkane solvent
Type: physicochemical
Settings: ambient temperature (20-25° C.)
Method: General considerations: Solubility studies for all catalysts were performed using material as synthesized, unless otherwise noted. Solvents used were sparged with nitrogen (30-60 minutes) and dried over 3 Å mole sieves. Unless stated otherwise, all measurements were performed at ambient temperature (20-25° C.).
A measured mass of solvent was added to a known amount of catalyst. After stirring for at least 30 minutes or more, the resulting mixture was filtered. The filtrate was concentrated is to dryness, and the remaining catalyst was weighed to provide the mass of dissolved catalyst. Solubility was calculated using the formula below.
Alternatively, for mixtures prepared at a low concentration (<0.25 wt %) which remained heterogeneous (visible solids or murky), the value may be reported as being “less than” the calculated value.
Formula used to calculate solubility is listed below.

Row | Compound | Solubility (wt %) (solvent pentane) | Solubility (wt %) (solvent isohexane)
1 | CCCC[Si](CCCC)(CCCC)CC(=Nc1c(C)ccc(Cl)c1C)c1cccc(C(C[Si](CCCC)(CCCC)CCCC)=Nc2c(C)ccc(Cl)c2C)n1.[Cl][Fe][Cl] [Catalyst 8] | 1.7 wt % | 
2 | CCCC[Si](CCCC)(CCCC)CC(=Nc1c(C)cccc1C)c1cccc(C(C[Si](CCCC)(CCCC)CCCC)=Nc2c(C)cccc2C)n1.[Cl][Fe][Cl] [Catalyst 3] |  | 4.2 wt %
3 | CCCC[Si](CCCC)(CCCC)CC(=Nc1c(C)cc(C)cc1Cl)c1cccc(C(C[Si](CCCC)(CCCC)CCCC)=Nc2c(C)cc(C)cc2Cl)n1.[Cl][Fe][Cl] [Catalyst 9] | 0.15 wt % | 
4 | CCCC[Si](CCCC)(CCCC)CC(=Nc1c(C)cc(Cl)cc1C)c1cccc(C(C[Si](CCCC)(CCCC)CCCC)=Nc2c(C)cc(Cl)cc2C)n1.[Cl][Fe][Cl] [Catalyst 7] | 2.6 wt % | 
